Columns and labels:
[1] = molecular target: T1, Sphingosine 1-phosphate receptor 1 (Homo sapiens, UniProt P21453); test: Inhibition of human S1P1 expressed in human HeLa cells incubated for 20 mins by FLIPR assay; format: cell-based
[2] = molecular target: T1, Sphingosine 1-phosphate receptor 1; test: Antagonist activity at human S1P1 transfected in CHO cells incubated for 120 mins by [gamma-35S]GTP binding assay; format: functional, cell-based

T1 sequence (P21453 whole entry): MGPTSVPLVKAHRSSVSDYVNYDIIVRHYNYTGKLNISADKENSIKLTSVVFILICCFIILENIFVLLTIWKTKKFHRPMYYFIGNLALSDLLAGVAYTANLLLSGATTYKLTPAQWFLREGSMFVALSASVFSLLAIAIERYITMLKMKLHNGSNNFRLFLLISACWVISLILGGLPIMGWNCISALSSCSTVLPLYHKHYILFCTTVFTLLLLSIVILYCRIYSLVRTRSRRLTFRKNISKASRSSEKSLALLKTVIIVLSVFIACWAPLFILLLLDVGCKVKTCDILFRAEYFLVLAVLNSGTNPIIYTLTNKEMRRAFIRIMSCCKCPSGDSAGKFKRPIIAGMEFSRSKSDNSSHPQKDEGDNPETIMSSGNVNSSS

Cc1cc(-c2cccc(NCc3ccc(Cl)c(Cl)c3)c2)ccc1C(=O)N[C@@H](C)C(=O)O
IC50 [1]: 170 nM | IC50 [2]: 4270 nM

Source: ChEMBL document CHEMBL5338822, “The Role of Allylic Strain for Conformational Control in Medicinal Chemistry” (J Med Chem, 2023)
